Test results published in patent US7173004B2, “Macrocyclic isoquinoline peptide inhibitors of hepatitis C virus” (Bristol-Myers Squibb Company, priority 2003, dated 2007).
Structures can show the parent of a compound that is named as a salt.

Test system: HCV replicon (HCV 1b-377-neo replicon cells, Huh7)
Assay: HCV replicon cell-based FRET assay
Details: Hepatitis C virus, Huh-7
Experimental: HCV Replion assays were utilized in the present invention, and were prepared, conducted and validated as follows:
An HCV replicon whole cell system was established as described by Lohmann V, Korner F, Koch J, Herian U, Theilmann L, Bartenschlager R., Science 285(5424): 110–3 (1999). This system enabled us to evaluate the effects of our HCV Protease compounds on HCV RNA replication. Briefly, using the HCV strain 1B sequence described in the Lohmann paper (Assession number: AJ238799), an HCV cDNA was synthesized by Operon Technologies, Inc. (Alameda, Calif.), and the full-length replicon was then assembled in plasmid pGem9zf(+) (Promega, Madison, Wis.) using standard molecular biology techniques. The replicon consists of (i) the HCV 5′ UTR fused to the first 12 amino acids of the capsid protein, (ii) the neomycin phosphotransferase gene (neo), (iii) the IRES from encephalomyocarditis virus (EMCV), and (iv) HCV NS3 to NS5B genes and the HCV 3′ UTR. Plasmid DNAs were linearized with ScaI and RNA transcripts were synthesized in vitro using the T7 MegaScript transcription kit (Ambion, Austin, Tex.) according to manufacturer's directions. To generate cell lines, 4×10^6 Huh-7 cells (kindly provided by R. Bartenschlager and available from Health Science Research Resources Bank, Japan Health Sciences Foundation) were electroporated (GenePulser System, Bio-Rad) with 10 microgram(“μg”) of RNA transcript and plated into 100-mm dishes. After 24 h, selective media containing 1.0 milligrams/milliliter (“mg/ml”) G418 was added and media was changed every 3 to 5 days. Approximately 4 weeks after electroporation, small colonies were visible which were isolated and expanded for further analysis. These cell lines were maintained at 37° C., 5% CO2, 100% relative humidity in DMEM (Cat# 11965-084) Gibco-BRL, Rockville, Md., with 10% heat inactivated calf serum (Sigma), 10 ml of 100× penicillin/streptomycin (Cat# 15140-122) Gibco-BRL, Rockville, Md., Geneticin (Cat# 10131-027) Gibco-BRL, Rockville, Md. at 1 mg/ml. One of the cell lines (deposited as ATCC Accession No. PTA-4583 in the American Type Culture Collection) which had approximately 3,000 copies of HCV replicon RNA/cell was used for development of the assay (HCV 1b-377-neo replicon cells).
Huh7 cells, constitutively expressing the HCV replicon, were grown in Dulbecco's Modified Eagle Media (DMEM) containing 10% Fetal calf serum (FCS) and 1 mg/ml G418 (Gibco-BRL). Cells were seeded the night before (1.5×10^4 cells/well) in 96-well tissue-culture sterile plates. Compound and no compound controls were prepared in DMEM containing 4% FCS, 1:100 Penicillin/Streptomysin, 1:100 L-glutamine and 5% DMSO in the dilution plate (0.5% DMSO final concentration in the assay). Compound/DMSO mixes were added to the cells and incubated for 4 days at 37° C. After 4 days, cells were first assessed for cytotoxicity using alamar Blue (Trek Diagnotstic Systems) for a CC50 reading. The toxicity of compound (CC50) was determined by adding 1/10th volume of alamar Blue to the media incubating the cells. After 4 hr, the fluorescence signal from each well was read, with an excitation wavelength at 530 nm and an emission wavelength of 580 nm, using the Cytofluor Series 4000 (Perspective Biosystems). Plates were then rinsed thoroughly with Phosphate-Buffered Saline (PBS) (3 times 150 μl). The cells were lysed with 25 μl of a lysis assay reagent containing an HCV protease substrate (5× cell Luciferase cell culture lysis reagent (Promega #E153A) diluted to 1× with distilled water, NaCl added to 150 mM final, the FRET peptide diluted to 10 μM final from a 2 mM stock in 100% DMSO). The HCV protease substrate (FRET peptide; AnaSpec, Inc. cat #22991, described by Taliani et al. in Anal. Biochem. 240(2):60–67 (1996)) contains a fluorescence donor, EDANS, near one end of the peptide and an acceptor, DABCYL, near the other end. […]

Row | Structure (SMILES) | EC50
1 | COc1ccc2c(O[C@@H]3C[C@H]4C(=O)N[C@]5(C(=O)O)C[C@H]5/C=C\CCCSC(C)(C)[C@H](NC(=O)OC(C)(C)C)C(=O)N4C3)nccc2c1 [Compound 79, (1S,4R,6S,14R,18R)-7-cis-14-tert-Butoxycarbonylamino-13,13-dimethyl-18-(6-methoxy-isoquinolin-1-yloxy)-2,15-dioxo-12-thia-3,16-diazatricyclo[14.3.0.0^4,6]nonadec-7-ene-4-carboxylic acid] | 5000 to 50000 nM
2 | CCC1(S(=O)(=O)NC(=O)C23CC2C=CCCCSCC(NC(=O)OCC(C)(C)C)C(=O)N2CC(Oc4nccc5cc(OC)ccc45)CC2C(=O)N3)CC1 (stereo not shown) [Compound 45] | < 50 nM
3 | CCC1(S(=O)(=O)NC(=O)C23CC2C=CCCCSCC(NC(=O)NC2CCCC2)C(=O)N2CC(Oc4nccc5cc(OC)ccc45)CC2C(=O)N3)CC1 (stereo not shown) [Compound 46] | < 50 nM
4 | COc1ccc2c(OC3CC4C(=O)NC5(C(=O)NS(=O)(=O)C6(C)CC6)CC5C=CCCCOC(C)C(NC(=O)OC(C)(C)C)C(=O)N4C3)nccc2c1 (stereo not shown) [Compound 66] | 50 to 500 nM
5 | CCC1(S(=O)(=O)NC(=O)C23CC2C=CCCCOC(C)C(NC(=O)OC(C)(C)C)C(=O)N2CC(Oc4nccc5cc(OC)ccc45)CC2C(=O)N3)CC1 (stereo not shown) [Compound 70] | 50 to 500 nM
6 | CCC1(S(=O)(=O)NC(=O)C23CC2C=CCCCSCC(NC(=O)OC(C)C)C(=O)N2CC(Oc4nccc5cc(OC)ccc45)CC2C(=O)N3)CC1 (stereo not shown) [Compound 44] | < 50 nM
7 | O=C(N[C@H]1CCCCC/C=C\[C@@H]2C[C@@]2(C(=O)NS(=O)(=O)C2CC2)NC(=O)[C@@H]2C[C@@H](Oc3nccc4ccccc34)CN2C1=O)O[C@H]1CCOC1 [Compound 15, [4-Cyclopropanesulfonylaminocarbonyl-18-(isoquinolin-1-yloxy)-2,15-dioxo-3,16-diaza-tricyclo[14.3.0.0^4,6]nonadec-7-en-14-yl]-carbamic acid tetrahydro-furan-3-yl ester] | < 50 nM
8 | CC(C)(C)OC(=O)N[C@H]1CCCCC/C=C\[C@@H]2C[C@@]2(C(=O)O)NC(=O)[C@@H]2C[C@@H](Oc3nccc4ccccc34)CN2C1=O [Compound 1, 14-tert-Butoxycarbonylamino-18-(isoquinolin-1-yloxy)-2,15-dioxo-3,16-diaza-tricyclo[14.3.0.0^4,6]nonadec-7-ene-4-carboxylic acid] | 500 to 5000 nM
9 | COc1ccc2c(OC3CC4C(=O)NC5(C(=O)NS(=O)(=O)C6CC6)CC5C=CCCCSCC(NC(=O)OC(C)C)C(=O)N4C3)nccc2c1 (stereo not shown) [Compound 74] | < 50 nM
10 | CC1(OC(=O)N[C@H]2CCCCC/C=C\[C@@H]3C[C@@]3(C(=O)NS(=O)(=O)C3CC3)NC(=O)[C@@H]3C[C@@H](Oc4nccc5ccccc45)CN3C2=O)CCC1 [Compound 56, [(Z)-(1S,4R,14S,18R)-4-cyclopropanesulfonylaminocarbonyl-18-(isoquinolin-1-yloxy)-2,15-dioxo-3,16-diaza-tricyclo[14.3.0.0^4,6]nonadec-7-en-14-yl]-carbamic acid 1-methyl-cyclobutyl ester] | < 50 nM
11 | COc1ccc2c(OC3CC4C(=O)NC5(C(=O)NS(=O)(=O)C6CC6)CC5C=CCOCCCC(NC(=O)NC5CCCC5)C(=O)N4C3)nccc2c1 (stereo not shown) [Compound 33] | < 50 nM
12 | COc1ccc2c(OC3CC4C(=O)NC5(C(=O)NS(=O)(=O)C6(C)CC6)CC5C=CCCCSCC(NC(=O)OCC(C)(C)C)C(=O)N4C3)nccc2c1 (stereo not shown) [Compound 42] | < 50 nM
13 | COc1ccc2c(OC3CC4C(=O)NC5(C(=O)NS(=O)(=O)C6(C)CC6)CC5C=CCOCCCC(NC(=O)OC(C)(C)C)C(=O)N4C3)nccc2c1 (stereo not shown) [Compound 29] | < 50 nM
14 | CCCC1(S(=O)(=O)NC(=O)[C@@]23C[C@H]2/C=C\CCCCC[C@H](NC(=O)OC(C)(C)C)C(=O)N2C[C@H](Oc4nccc5ccccc45)C[C@H]2C(=O)N3)CC1 [Compound 6, [18-(Isoquinolin-1-yloxy)-2,15-dioxo-4-(1-propyl-cyclopropanesulfonylaminocarbonyl)-3,16-diaza-tricyclo[14.3.0.0^4,6]nonadec-7-en-14-yl]-carbamic acid tert-butyl ester] | < 50 nM
15 | COc1c(NC2CCCCCC=CC3CC3(C(=O)NS(=O)(=O)C3CC3)NC(=O)C3CC(Oc4nccc5ccccc45)CN3C2=O)c(=O)c1=O (stereo not shown) [Compound 21] | 50 to 500 nM
16 | N[C@H]1CCCCC/C=C\[C@@H]2C[C@@]2(C(=O)NS(=O)(=O)C2CC2)NC(=O)[C@@H]2C[C@@H](Oc3nccc4ccccc34)CN2C1=O [Compound 11, Cyclopropanesulfonic acid [14-amino-18-(isoquinolin-1-yloxy)-2,15-dioxo-3,16-diaza-tricyclo[14.3.0.0^4,6]nonadec-7-ene-4-carbonyl]-amide bis hydrochloride] | 50 to 500 nM
17 | COc1ccc2c(OC3CC4C(=O)NC5(C(=O)O)CC5C=CCCCCCC(NC(=O)OC(C)(C)C)C(=O)N4C3)nccc2c1 (stereo not shown) [Compound 17A] | 50 to 500 nM
18 | CC1(OC(=O)NC2CCCCCC=CC3CC3(C(=O)NS(=O)(=O)C3CC3)NC(=O)C3CC(Oc4nccc5ccccc45)CN3C2=O)CCCC1 (stereo not shown) [Compound 50] | < 50 nM
19 | COc1ccc2c(OC3CC4C(=O)NC5(C(=O)NS(=O)(=O)C6(C)CC6)CC5C=CCCCOC(C)C(NC(=O)NC5CCCC5)C(=O)N4C3)nccc2c1 (stereo not shown) [Compound 69] | < 50 nM
20 | CCC1(S(=O)(=O)NC(=O)C23CC2C=CCCCOC(C)C(NC(=O)NC2CCCC2)C(=O)N2CC(Oc4nccc5cc(OC)ccc45)CC2C(=O)N3)CC1 (stereo not shown) [Compound 73] | 50 to 500 nM
21 | COc1ccc2c(OC3CC4C(=O)NC5(C(=O)NS(=O)(=O)C6(C)CC6)CC5C=CCCCSCC(NC(=O)NC5CCCC5)C(=O)N4C3)nccc2c1 (stereo not shown) [Compound 43] | < 50 nM
22 | CC(C)(C)OC(=O)N[C@H]1CCCCC/C=C\[C@@H]2C[C@@]2(C(=O)NS(=O)(=O)C2(Cc3ccccc3)CC2)NC(=O)[C@@H]2C[C@@H](Oc3nccc4ccccc34)CN2C1=O [Compound 5, [4-(1-Benzyl-cyclopropanesulfonylaminocarbonyl)-18-(isoquinolin-1-yloxy)-2,15-dioxo-3,16-diaza-tricyclo[14.3.0.0^4,6]nonadec-7-en-14-yl]-carbamic acid tert-butyl ester] | 50 to 500 nM
23 | CC(C)(CCl)OC(=O)NC1CCCCCC=CC2CC2(C(=O)NS(=O)(=O)C2CC2)NC(=O)C2CC(Oc3nccc4ccccc34)CN2C1=O (stereo not shown) [Compound 52] | < 50 nM
24 | COc1ccc2c(O[C@@H]3C[C@H]4C(=O)N[C@]5(C(=O)NS(=O)(=O)C6CC6)C[C@H]5/C=C\CCCS(=O)(=O)C[C@H](NC(=O)OC(C)(C)C)C(=O)N4C3)nccc2c1 [Compound 19] | 50 to 500 nM
25 | COc1ccc2c(OC3CC4C(=O)NC5(C(=O)NS(=O)(=O)C6CC6)CC5C=CCCCOC(C)C(NC(=O)OC(C)(C)C)C(=O)N4C3)nccc2c1 (stereo not shown) [Compound 62] | 50 to 500 nM
26 | CC(C)(C)OC(=O)N[C@H]1CCCCC/C=C\[C@@H]2C[C@@]2(C(=O)NS(=O)(=O)C2(C)CC2)NC(=O)[C@@H]2C[C@@H](Oc3nccc4ccccc34)CN2C1=O [Compound 8, [18-(Isoquinolin-1-yloxy)-4-(1-methyl-cyclopropanesulfonylaminocarbonyl)-2,15-dioxo-3,16-diaza-tricyclo[14.3.0.0^4,6]nonadec-7-en-14-yl]-carbamic acid tert-butyl ester] | < 50 nM
27 | COc1ccc2c(OC3CC4C(=O)NC5(C(=O)NS(=O)(=O)C6CC6)CC5C=CCOCCCC(NC(=O)OCC(C)(C)C)C(=O)N4C3)nccc2c1 (stereo not shown) [Compound 32] | < 50 nM
28 | COc1ccc2c(OC3CC4C(=O)NC5(C(=O)NS(=O)(=O)C6(C)CC6)CC5C=CCCCCCC(NC(=O)OC(C)(C)C)C(=O)N4C3)nccc2c1 (stereo not shown) [Compound 53] | < 50 nM
